In the NIST ThermoML archive (doi:10.1007/s10765-013-1526-8):
Numbers after ± are expanded uncertainties.

What was measured:
[1] = xn = mol fraction of the nth substance listed; conditions: 101 kPa, Liquid; for speed of sound: Sing-around technique in a fixed-path interferometer
[2] = refractive index (Na D-line) (dimensionless); xn = mol fraction of the nth substance listed; conditions: 101 kPa, Liquid

CCCCC(CC)CO (stereo not given) [2-ethyl-1-hexanol] + c1ccccc1
Conditions	mass density, [1] [kg/m3]	refractive index, [2]	speed of sound, [1] [m/s]	viscosity, [1] [mPa·s]
298.15 K, x2 = 0	829.07 ± 0.82	1.4287 ± 0.0019	1319 ± 10	8.418 ± 0.65
298.15 K, x2 = 0.0606	829.89 ± 0.81	1.4332 ± 0.0019	1313 ± 10	7.185 ± 0.57
298.15 K, x2 = 0.1203	830.77 ± 0.81	1.4376 ± 0.0019	1308 ± 10	6.102 ± 0.5
298.15 K, x2 = 0.1798	831.79 ± 0.8	1.4418 ± 0.0019	1304 ± 10	5.153 ± 0.45
298.15 K, x2 = 0.2384	832.95 ± 0.8	1.4463 ± 0.0019	1299 ± 10	4.364 ± 0.38
298.15 K, x2 = 0.3132	834.73 ± 0.79	1.4519 ± 0.0019	1293 ± 10	3.469 ± 0.31
298.15 K, x2 = 0.3915	836.9 ± 0.78	1.4577 ± 0.0019	1288 ± 10	2.697 ± 0.24
298.15 K, x2 = 0.4515	838.87 ± 0.78	1.4624 ± 0.0019	1283 ± 10	2.222 ± 0.2
298.15 K, x2 = 0.526	841.73 ± 0.77	1.468 ± 0.0019	1278 ± 10	1.749 ± 0.16
298.15 K, x2 = 0.5849	844.27 ± 0.76	1.4726 ± 0.0019	1275 ± 10	1.474 ± 0.14
298.15 K, x2 = 0.6557	847.83 ± 0.74	1.4778 ± 0.0019	1273 ± 10	1.202 ± 0.12
298.15 K, x2 = 0.726	851.85 ± 0.73	1.4829 ± 0.0019	1272 ± 10	1.008 ± 0.1
298.15 K, x2 = 0.7937	856.26 ± 0.72	1.4877 ± 0.0019	1273 ± 10	0.866 ± 0.087
298.15 K, x2 = 0.8592	861.07 ± 0.7	1.492 ± 0.0019	1276 ± 10	0.764 ± 0.078
298.15 K, x2 = 0.9299	867.04 ± 0.68	1.4953 ± 0.0019	1284 ± 10	0.68 ± 0.071
303.15 K, x2 = 0	825.39 ± 0.83	1.4266 ± 0.0019	1301 ± 10	7.144 ± 0.57
303.15 K, x2 = 0.0606	826.11 ± 0.82	1.4312 ± 0.0019	1297 ± 10	5.969 ± 0.5
303.15 K, x2 = 0.1203	826.92 ± 0.82	1.4355 ± 0.0019	1292 ± 10	4.984 ± 0.43
303.15 K, x2 = 0.1798	827.89 ± 0.82	1.4397 ± 0.0019	1287 ± 10	4.114 ± 0.36
303.15 K, x2 = 0.2384	828.98 ± 0.81	1.4442 ± 0.0019	1282 ± 10	3.409 ± 0.3
303.15 K, x2 = 0.3132	830.66 ± 0.8	1.4499 ± 0.0019	1275 ± 10	2.624 ± 0.24
303.15 K, x2 = 0.3915	832.74 ± 0.8	1.4557 ± 0.0019	1269 ± 10	2.002 ± 0.18
303.15 K, x2 = 0.4515	834.63 ± 0.79	1.4604 ± 0.0019	1264 ± 10	1.621 ± 0.15
303.15 K, x2 = 0.526	837.35 ± 0.78	1.4661 ± 0.0019	1258 ± 10	1.305 ± 0.12
303.15 K, x2 = 0.5849	839.78 ± 0.77	1.4708 ± 0.0019	1255 ± 10	1.127 ± 0.11
303.15 K, x2 = 0.6557	843.22 ± 0.76	1.4761 ± 0.0019	1252 ± 10	0.953 ± 0.095
303.15 K, x2 = 0.726	847.09 ± 0.75	1.4811 ± 0.0019	1252 ± 10	0.852 ± 0.086
303.15 K, x2 = 0.7937	851.36 ± 0.73	1.4858 ± 0.0019	1253 ± 10	0.758 ± 0.078
303.15 K, x2 = 0.8592	856.01 ± 0.72	1.4899 ± 0.0019	1256 ± 10	0.701 ± 0.073
303.15 K, x2 = 0.9299	861.77 ± 0.7	1.4934 ± 0.0019	1264 ± 10	0.654 ± 0.069
308.15 K, x2 = 0	821.68 ± 0.84	1.4245 ± 0.0019	1283 ± 10	6.09 ± 0.5
308.15 K, x2 = 0.0606	822.28 ± 0.84	1.4292 ± 0.0019	1278 ± 10	5.084 ± 0.44
308.15 K, x2 = 0.1203	823.05 ± 0.83	1.4335 ± 0.0019	1273 ± 10	4.22 ± 0.37
308.15 K, x2 = 0.1798	823.96 ± 0.83	1.4378 ± 0.0019	1269 ± 10	3.49 ± 0.31
308.15 K, x2 = 0.2384	825.01 ± 0.82	1.4423 ± 0.0019	1265 ± 10	2.903 ± 0.26
308.15 K, x2 = 0.3132	826.61 ± 0.82	1.448 ± 0.0019	1260 ± 10	2.272 ± 0.21
308.15 K, x2 = 0.3915	828.57 ± 0.81	1.4539 ± 0.0019	1255 ± 10	1.741 ± 0.16
308.15 K, x2 = 0.4515	830.4 ± 0.8	1.4585 ± 0.0019	1252 ± 10	1.451 ± 0.14
308.15 K, x2 = 0.526	832.98 ± 0.79	1.4642 ± 0.0019	1248 ± 10	1.174 ± 0.11
308.15 K, x2 = 0.5849	835.32 ± 0.78	1.4689 ± 0.0019	1245 ± 10	1.02 ± 0.1
308.15 K, x2 = 0.6557	838.62 ± 0.77	1.4743 ± 0.0019	1242 ± 10	0.881 ± 0.088
308.15 K, x2 = 0.726	842.36 ± 0.76	1.4793 ± 0.0019	1240 ± 10	0.785 ± 0.08
308.15 K, x2 = 0.7937	846.49 ± 0.75	1.4839 ± 0.0019	1239 ± 10	0.713 ± 0.074
308.15 K, x2 = 0.8592	850.99 ± 0.73	1.4879 ± 0.0019	1240 ± 10	0.659 ± 0.069
308.15 K, x2 = 0.9299	856.56 ± 0.71	1.4913 ± 0.0019	1243 ± 10	0.605 ± 0.065
